The values that follow come from PubChem BioAssay AID248 (DTP/NCI, 2004).

This assay has as its system L1210 leukemia ip in BDF1 mice, survival T/C. The assay is described as follows: NCI In Vivo Anticancer Drug Screen. Data for tumor model L1210 Leukemia (intraperitoneal) in B6D2F1 (BDF1) mice. As to conditions: endpoint: mean survival time, higher = longer survival. In short, it runs like this: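 Transplanted-tumor mice were given test agent; controls received vehicle only. Survival readings from the two groups were divided (treated over control).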

[1] abbreviates: dose: 100.0 mg/kg/injection, schedule: Q01DX009 (ip), vehicle: Klucel (hydroxypropylcellulose) (HPC).
The mark [2] stands for this setting: dose: 200.0 mg/kg/injection, schedule: Q01DX009 (ip), vehicle: Klucel (hydroxypropylcellulose) (HPC).
The mark [3] stands for this setting: dose: 400.0 mg/kg/injection, schedule: Q01DX009 (ip), vehicle: Klucel (hydroxypropylcellulose) (HPC).
The mark [4] stands for this setting: dose: 100.0 mg/kg/injection, schedule: Q01DX009 (ip), vehicle: saline with Tween-80.
Where [5] appears, read: dose: 200.0 mg/kg/injection, schedule: Q01DX009 (ip), vehicle: saline with Tween-80.
Setting [6] is: dose: 200.0 mg/kg/injection, schedule: Q04DX003 (ip), vehicle: saline with Tween-80.
Setting [7] is: dose: 400.0 mg/kg/injection, schedule: Q01DX009 (ip), vehicle: saline with Tween-80.
The mark [8] stands for this setting: dose: 400.0 mg/kg/injection, schedule: Q04DX003 (ip), vehicle: saline with Tween-80.
Where [9] appears, read: dose: 100.0 mg/kg/injection, schedule: Q04DX003 (ip), vehicle: saline with Tween-80.
[10] abbreviates: dose: 50.0 mg/kg/injection, schedule: Q01DX009 (ip), vehicle: saline with Tween-80.
Where [11] appears, read: dose: 100.0 mg/kg/injection, schedule: Q04DX003 (ip), vehicle: Klucel (hydroxypropylcellulose) (HPC).
[12] abbreviates: dose: 200.0 mg/kg/injection, schedule: Q04DX003 (ip), vehicle: Klucel (hydroxypropylcellulose) (HPC).
Setting [13] is: dose: 400.0 mg/kg/injection, schedule: Q04DX003 (ip), vehicle: Klucel (hydroxypropylcellulose) (HPC).

Structures are written as SMILES. “And” between values parts separate entries of the source, which are not always exact repeats. Equal values may be shown once. Inconclusive results and toxic doses are left out.

With `OCC1OC(n2ncc3nccnc32)C(O)C1O` (stereo not drawn), the T/C is, setting by setting: (dose: 50.0 mg/kg/injection, schedule: Q01DX005 (ip), vehicle: other) 105 % of control; (dose: 100.0 mg/kg/injection, schedule: Q01DX005 (ip), vehicle: other) 105 % of control; (dose: 200.0 mg/kg/injection, schedule: Q01DX005 (ip), vehicle: other) 91 % of control.
Take `C=C[C@H]1CN2CC[C@H]1C[C@@H]2[C@@H](O)c1ccnc2ccccc12`: the T/C by setting is: under setting [1], 101 % of control; (dose: 100.0 mg/kg/injection, schedule: Q04DX002 (ip), vehicle: Klucel (hydroxypropylcellulose) (HPC)) 103 % of control; under setting [2], 93 % of control; (dose: 200.0 mg/kg/injection, schedule: Q04DX002 (ip), vehicle: Klucel (hydroxypropylcellulose) (HPC)) 103 % of control; under setting [3], 93 % of control; (dose: 400.0 mg/kg/injection, schedule: Q04DX002 (ip), vehicle: Klucel (hydroxypropylcellulose) (HPC)) 96 % of control.
Take `Cc1ccc(C(N)=O)cn1`: the T/C runs as follows: under setting [4], 104 % of control; under setting [5], 104 % of control; under setting [6], 107 % of control; under setting [7], 101 % of control; under setting [8], 97 % of control.
As to `CCO/C=C/c1ccccc1`, the T/C under setting [4] was 101 % of control; the T/C under setting [9] is 93 % of control; the T/C under setting [5] was 96 % of control; the T/C under setting [6] was 98 % of control; the T/C under setting [7] is 90 % of control.
For `CC1(C)CCOc2ccccc21`, the T/C under setting [10] was 88 % of control and the T/C under setting [4] was 94 % of control.
For `CN1CCN=C1c1ccc(NC(=O)c2ccc(C(=O)Nc3ccc(C4=NCCN4C)cc3)c(Cl)c2)cc1`, the T/C is, setting by setting: (dose: 1.5 mg/kg/injection, schedule: Q01DX Z (ip), vehicle: water) 101 % of control; (dose: 3.0 mg/kg/injection, schedule: Q01DX Z (ip), vehicle: water) 103 % of control; (dose: 6.0 mg/kg/injection, schedule: Q01DX Z (ip), vehicle: water) 119 % of control.
`CC(=O)CC(=O)Nc1ccc(C(=O)c2ccccc2)cc1`: the T/C runs as follows: (dose: 37.5 mg/kg/injection, schedule: Q01DX009 (ip), vehicle: saline) 98 % of control; (dose: 75.0 mg/kg/injection, schedule: Q01DX001 (ip), vehicle: acetone) 87 % of control; (dose: 75.0 mg/kg/injection, schedule: Q01DX001 (ip), vehicle: saline) 95 % of control; (dose: 75.0 mg/kg/injection, schedule: Q01DX009 (ip), vehicle: saline) 93 % of control; (dose: 150.0 mg/kg/injection, schedule: Q01DX001 (ip), vehicle: saline) 98 % of control; (dose: 150.0 mg/kg/injection, schedule: Q01DX009 (ip), vehicle: saline) 107 % of control. In addition, the T/C (dose: 300.0 mg/kg/injection, schedule: Q01DX001 (ip), vehicle: acetone) was 98 % of control and the T/C (dose: 300.0 mg/kg/injection, schedule: Q01DX001 (ip), vehicle: saline) was 90 % of control.
For the molecule `Oc1ccc(C2N(c3ccccc3)CCN2c2ccccc2)cc1`, the T/C is 111 % of control under setting [4]; 92 % of control under setting [9]; 103 % of control under setting [5]; 97 % of control under setting [6]; 89 % of control under setting [7]; 101 % of control under setting [8].
For `CCC(=O)c1ccc(O)cc1`, the T/C was 102 % of control under setting [11], 102 % of control under setting [12] and 102 % of control under setting [13].
Take `OCCN1CCN(CCCN2c3ccccc3Sc3ccc(C(F)(F)F)cc32)CC1`: the T/C (dose: 0.09 mg/kg/injection, schedule: Q01DX009 (ip), vehicle: Klucel (hydroxypropylcellulose) (HPC)) is 109 % of control; the T/C (dose: 0.12 mg/kg/injection, schedule: Q01DX009 (ip), vehicle: acetone) is 107 % of control; the T/C (dose: 0.19 mg/kg/injection, schedule: Q01DX009 (ip), vehicle: Klucel (hydroxypropylcellulose) (HPC)) was 97 % of control; the T/C (dose: 0.25 mg/kg/injection, schedule: Q01DX009 (ip), vehicle: acetone) was 106 % of control; the T/C (dose: 0.39 mg/kg/injection, schedule: Q01DX009 (ip), vehicle: Klucel (hydroxypropylcellulose) (HPC)) is 120 % of control; the T/C (dose: 0.39 mg/kg/injection, schedule: Q01DX009 (ip), vehicle: saline) is 97 % of control. For the same molecule, the T/C is 101 % of control (dose: 0.39 mg/kg/injection, schedule: Q04DX003 (ip), vehicle: saline); 112 % of control (dose: 0.5 mg/kg/injection, schedule: Q01DX009 (ip), vehicle: acetone); 111 % of control (dose: 0.58 mg/kg/injection, schedule: Q01DX009 (ip), vehicle: saline); 101 % of control (dose: 0.78 mg/kg/injection, schedule: Q01DX009 (ip), vehicle: Klucel (hydroxypropylcellulose) (HPC)); 108 % of control (dose: 0.78 mg/kg/injection, schedule: Q01DX009 (ip), vehicle: saline); 97 % of control and 108 % of control (dose: 0.78 mg/kg/injection, schedule: Q04DX003 (ip), vehicle: saline). In addition, the T/C runs as follows: (dose: 1.0 mg/kg/injection, schedule: Q01DX009 (ip), vehicle: acetone) 120 % of control; (dose: 1.17 mg/kg/injection, schedule: Q01DX009 (ip), vehicle: saline) 108 % of control; (dose: 1.25 mg/kg/injection, schedule: Q01DX009 (ip), vehicle: saline) 98 % of control; (dose: 1.56 mg/kg/injection, schedule: Q01DX009 (ip), vehicle: Klucel (hydroxypropylcellulose) (HPC)) 92 % of control; (dose: 1.56 mg/kg/injection, schedule: Q01DX009 (ip), vehicle: saline) 87 % of control; (dose: 1.56 mg/kg/injection, schedule: Q04DX003 (ip), vehicle: saline) 97 % of control and 108 % of control. Besides, the T/C is, setting by setting: (dose: 2.34 mg/kg/injection, schedule: Q01DX009 (ip), vehicle: saline) 97 % of control; (dose: 3.12 mg/kg/injection, schedule: Q04DX003 (ip), vehicle: saline) 102 % of control and 101 % of control; (dose: 4.68 mg/kg/injection, schedule: Q04DX003 (ip), vehicle: Klucel (hydroxypropylcellulose) (HPC)) 92 % of control; (dose: 5.0 mg/kg/injection, schedule: Q01DX009 (ip), vehicle: saline) 94 % of control and 88 % of control; (dose: 6.25 mg/kg/injection, schedule: Q04DX003 (ip), vehicle: saline) 100 % of control and 114 % of control and 112 % of control; (dose: 6.6 mg/kg/injection, schedule: Q04DX003 (ip), vehicle: saline) 106 % of control. The T/C (dose: 9.37 mg/kg/injection, schedule: Q04DX003 (ip), vehicle: Klucel (hydroxypropylcellulose) (HPC)) was 107 % of control; the T/C (dose: 10.0 mg/kg/injection, schedule: Q04DX003 (ip), vehicle: saline) was 117 % of control; the T/C (dose: 12.5 mg/kg/injection, schedule: Q04DX003 (ip), vehicle: saline) is 107 % of control and 116 % of control; the T/C (dose: 15.0 mg/kg/injection, schedule: Q04DX003 (ip), vehicle: saline) is 117 % of control; the T/C (dose: 50.0 mg/kg/injection, schedule: Q04DX003 (ip), vehicle: saline) was 164 % of control.
In the case of `CN(C)c1ccc(/C=N/NC(=O)CNC(=O)Nc2nccs2)c(Cl)c1`, the T/C was 100 % of control under setting [10], 89 % of control under setting [4] and 89 % of control under setting [5].
As to `CCCCCCCC/C=C\CCCCCCCC(=O)OCCCCCCCCCCCCCC`, the T/C runs as follows: under setting [1], 104 % of control; under setting [2], 98 % of control; under setting [3], 94 % of control.
Turning to `COC(=O)c1c(I)cccc1[N+](=O)[O-]`, the T/C by setting is: under setting [1], 92 % of control; under setting [11], 97 % of control; under setting [2], 91 % of control; under setting [12], 103 % of control; under setting [3], 96 % of control; under setting [13], 97 % of control.
As to `Cc1ccccc1C(O)c1ccccc1Cl` (stereo not drawn), the T/C is 109 % of control (dose: 100.0 mg/kg/injection, schedule: Q01DX001 (ip), vehicle: saline with Tween-80); 102 % of control (dose: 200.0 mg/kg/injection, schedule: Q01DX001 (ip), vehicle: saline with Tween-80); 94 % of control (dose: 400.0 mg/kg/injection, schedule: Q01DX001 (ip), vehicle: saline with Tween-80).
Consider `NC(=O)Cn1cnc2cncnc21`, for which the T/C reads like this: under setting [9], 103 % of control; under setting [6], 111 % of control; under setting [8], 99 % of control.
